One assay concerns U87-MG human glioma cell. The assay can be described thus: Cell proliferation analysis (MTT). The class given is cell-based. As to conditions: for activity at 10 µM / inhibition at 10 µM: Homo sapiens, U-87 MG, 48 h.
For assay [1], the system named is U138-MG human glioma cell. The assay can be described thus: Cell proliferation analysis (MTT). The class given is cell-based. Conditions: 10 µM, two days, MTT; for activity at 10 µM / inhibition at 10 µM: Homo sapiens, 48 h.

SMILES strings stand for the structures.

Turning to `O=C1CCc2cc(OCCCCCCOC3CCCCO3)ccc2N1` (stereo not shown) [TR-G031, 6-((6-((tetrahydro-2H-pyran-2-yl)oxy)hexyl)oxy)-3,4-dihydroquinolin-2(1H)-one], in the assay with U87-MG human glioma cell (10 µM, two days, MTT), the activity at 10 µM stood at 72% and the inhibition (usually the relative decrease from the control value, in per cent) at 10 µM came to 28%. In assay [1], the activity at 10 µM came to 80% and the inhibition at 10 µM stood at 20%.

As for `CN1C(=O)/C(=N\NC(=O)COc2ccc3c(c2)CCC(=O)N3)c2cc(F)ccc21` [TR-G047, (Z)-N'-(5fluoro-1-methyl-2-oxoindolin-3-ylidene)-2-((2-oxo-1,2,3,4-tetrahydroquinolin-6-yl)oxy)acetohydrazide], the activity at 10 µM came to 77% with U87-MG human glioma cell (10 µM, two days, MTT) and 62% in assay [1]. The inhibition at 10 µM amounted to 23% in the assay with U87-MG human glioma cell (10 µM, two days, MTT) and 38% in assay [1].

Take `CCCOc1ccc2c(c1)CCC(=O)N2` [TR-G068, 6-propoxy-3,4-dihydroquinolin-2(1H)-one]: the activity at 10 µM in the assay on U87-MG human glioma cell (10 µM, two days, MTT) turned out to be 59%; in assay [1], 82%. Further, the inhibition at 10 µM in the assay on U87-MG human glioma cell (10 µM, two days, MTT) amounted to 42%; in assay [1], 18%.

`O=C1CCc2cc(OCCCCc3nnnn3C3CCCCC3)ccc2N1Cc1ccc(Cl)cc1` [TR-G111, 1-(4-chlorobenzyl)-6-(4-(1-cyclohexyl-1H-tetrazol-5-yl)butoxy)-3,4-dihydroquinolin-2(1H)-one]: the “Cell Proliferation (%)” value was determined as 68% in the assay with U87-MG human glioma cell (10 µM, two days, MTT) and 91% in assay [1]. Further, the inhibition at 10 µM was determined as 32% with U87-MG human glioma cell (10 µM, two days, MTT) and 9% in assay [1].

For the compound `O=C1CCc2cc(OCCCCc3nnnn3C3CCCCC3)ccc2N1Cc1ccccc1` [TR-G110, 1-benzyl-6-(4-(1-cyclohexyl-1H-tetrazol-5-yl)butoxy)-3,4-dihydroquinolin-2(1H)-one], in the assay on U87-MG human glioma cell (10 µM, two days, MTT), the activity at 10 µM was 58% and the inhibition at 10 µM is 42%. Further, in assay [1], the activity at 10 µM was found to be 69% and the inhibition at 10 µM stood at 31%.

Take `O=C1CCc2cc(OC(=O)c3cccc4ccccc34)ccc2N1` [TR-G011, 2-oxo-1,2,3,4-tetrahydroquinolin-6-yl 1-naphthoate]: in the assay on U87-MG human glioma cell (10 µM, two days, MTT), the activity at 10 µM amounted to 76% and the inhibition at 10 µM was 24%. In addition, in assay [1], the activity at 10 µM came to 60% and the inhibition at 10 µM turned out to be 40%.

For `CC(=O)c1ccc(NC(=O)COc2ccc3c(c2)CCC(=O)N3)cc1` [TR-G064, N-(4-acetylphenyl)-2-((2-oxo-1,2,3,4-tetrahydroquinolin-6-yl)oxy)acetamide], in the assay on U87-MG human glioma cell (10 µM, two days, MTT), the activity at 10 µM worked out at 70% and the inhibition at 10 µM is 30%. Besides, in assay [1], the activity at 10 µM was found to be 78% and the inhibition at 10 µM worked out at 22%.

As for `O=C(COc1ccc2c(c1)CCC(=O)N2)N/N=C/c1ccc(-c2ccc(Cl)cc2)cc1` [TR-G146, (E)-N'-((4'-chloro-[1,1'-biphenyl)-4-yl)methylene)-2-((2-oxo-1,2,3,4-tetrahydroquinolin-6-yl)oxy)acetohydrazide], the inhibition at 10 µM in the assay with U87-MG human glioma cell (10 µM, two days, MTT) amounted to 37%; in assay [1] it was 21%.

On to `CCN(C)C(=O)Oc1ccc2c(c1)CCC(=O)N2` [TR-G037, 2-oxo-1,2,3,4-tetrahydroquinolin-6-yl ethyl(methyl)carbamate], for which, in the assay on U87-MG human glioma cell (10 µM, two days, MTT), the activity at 10 µM came to 91% and the inhibition at 10 µM turned out to be 9%. Moreover, in assay [1], the activity at 10 µM worked out at 65% and the inhibition at 10 µM worked out at 35%.

Take `O=C1CCc2cc(OCC3CC3)ccc2N1` [TR-G010, 6-(cyclopropylmethoxy)-3,4-dihydroquinolin-2(1H)-one]: in the assay with U87-MG human glioma cell (10 µM, two days, MTT), the activity at 10 µM stood at 74% and the inhibition at 10 µM came to 26%. In addition, in assay [1], the activity at 10 µM worked out at 74% and the inhibition at 10 µM was 26%.

For the compound `C=Cc1ccc(CN2C(=O)CCc3cc(OCCCCc4nnnn4C4CCCCC4)ccc32)cc1` [TR-G107, 6-(4-(1-cyclohexyl-1H-tetrazol-5-yl)butoxy)-1-(4-vinylbenzyl)-3,4-dihydroquinolin-2(1H)-one], in the assay on U87-MG human glioma cell (10 µM, two days, MTT), the activity at 10 µM stood at 47% and the inhibition at 10 µM turned out to be 53%. In addition, in the assay with U87-MG human glioma cell (ranking), the “top 5 target compounds whose treatment resulted in the lowest proliferation” value is given as “top 5”. Also, in assay [1], the activity at 10 µM is 103% and the inhibition at 10 µM is -3%.

Source of the values: patent publication EP4644375A1, “SUBSTITUTED HYDROQUINOLINES FOR THE TREATMENT OF GLIOBLASTOMA MULTIFORME” (Molius Saglik Teknolojileri Anonim Sirketi, priority 2024, dated 2025).
